Measurements reported in patent publication US20240270762A1, “PENICILLIN-BINDING PROTEIN INHIBITORS” (priority 2021, published 2024).
≈ marks a conversion by molar mass, not a printed value. Read-outs that look alike come from different tables or passages of the source.

Assays:
[1] = target: T1, A. baumannii PBP1a (Acinetobacter baumannii, UniProt A0ABX6CK30); assay: Bocillin-FL competition binding via gel filtration, A. baumannii PBP1a; conditions: competition binding assay using Bocillin-FL via gel filtration; read-out: A. baumannii PBP1a Potency
T1 sequence (A0ABX6CK30 1-851): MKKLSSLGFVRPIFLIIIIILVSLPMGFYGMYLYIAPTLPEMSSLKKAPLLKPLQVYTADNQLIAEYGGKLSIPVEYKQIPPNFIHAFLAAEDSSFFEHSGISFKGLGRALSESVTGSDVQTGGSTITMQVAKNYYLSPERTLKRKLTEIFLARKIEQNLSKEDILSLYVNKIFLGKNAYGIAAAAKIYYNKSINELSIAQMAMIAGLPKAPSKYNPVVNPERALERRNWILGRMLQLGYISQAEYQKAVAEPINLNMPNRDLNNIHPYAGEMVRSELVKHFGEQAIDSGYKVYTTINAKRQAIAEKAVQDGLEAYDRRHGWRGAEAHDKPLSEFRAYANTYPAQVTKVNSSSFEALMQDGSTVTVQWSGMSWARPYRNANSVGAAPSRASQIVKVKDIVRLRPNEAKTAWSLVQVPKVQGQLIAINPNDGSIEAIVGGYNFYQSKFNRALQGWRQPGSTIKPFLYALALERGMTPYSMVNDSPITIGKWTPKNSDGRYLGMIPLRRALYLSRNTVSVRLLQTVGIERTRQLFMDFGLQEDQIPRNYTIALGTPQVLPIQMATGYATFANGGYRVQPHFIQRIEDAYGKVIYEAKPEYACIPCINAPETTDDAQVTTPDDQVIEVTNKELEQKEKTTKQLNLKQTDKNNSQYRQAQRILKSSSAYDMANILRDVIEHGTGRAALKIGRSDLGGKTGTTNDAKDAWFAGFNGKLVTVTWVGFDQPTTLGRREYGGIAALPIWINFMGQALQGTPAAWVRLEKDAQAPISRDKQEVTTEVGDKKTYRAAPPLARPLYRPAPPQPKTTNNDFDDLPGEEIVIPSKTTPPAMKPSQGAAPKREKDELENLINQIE
Procedure, shortened: (§1)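 Competitive equilibrium binding with Bocillin-FL reporter: PBP pre-incubated with inhibitor dilutions, Bocillin-FL added, 15 min incubation. Labelled enzyme isolated by size-exclusion spin plates, fluorescence measured; EC50 obtained by fitting bound fraction against inhibitor concentration with a Hill-coefficient model.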

[2] = target: A. baumannii PBP2 (Acinetobacter baumannii, UniProt D0C8Z9); assay: Bocillin-FL competition binding via gel filtration, A. baumannii PBP2
Chain of A. baumannii PBP2 (D0C8Z9 whole entry): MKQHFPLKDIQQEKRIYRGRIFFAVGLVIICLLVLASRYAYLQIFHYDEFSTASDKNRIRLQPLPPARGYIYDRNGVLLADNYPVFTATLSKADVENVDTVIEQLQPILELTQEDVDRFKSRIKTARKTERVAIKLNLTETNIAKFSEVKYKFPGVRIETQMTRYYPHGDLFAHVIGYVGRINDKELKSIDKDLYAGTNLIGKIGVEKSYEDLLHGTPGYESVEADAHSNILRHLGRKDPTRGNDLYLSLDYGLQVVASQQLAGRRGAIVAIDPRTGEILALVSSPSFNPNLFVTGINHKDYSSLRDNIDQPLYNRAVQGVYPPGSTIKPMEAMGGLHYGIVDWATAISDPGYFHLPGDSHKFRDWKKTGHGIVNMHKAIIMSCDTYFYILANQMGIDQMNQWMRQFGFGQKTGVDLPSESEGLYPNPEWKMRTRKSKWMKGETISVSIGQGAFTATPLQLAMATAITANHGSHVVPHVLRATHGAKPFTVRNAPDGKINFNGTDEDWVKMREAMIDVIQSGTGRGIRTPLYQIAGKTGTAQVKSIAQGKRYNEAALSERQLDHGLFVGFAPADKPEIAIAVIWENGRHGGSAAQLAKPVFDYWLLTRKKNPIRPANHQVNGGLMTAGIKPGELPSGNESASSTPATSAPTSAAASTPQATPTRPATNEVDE
Procedure, shortened: as §1

[3] = tested on: B. pseudomallei Bp82; assay: microbe, parasite or virus in culture; type: cell-based; conditions: Burkholderia pseudomallei, BP82, read-out: Minimum inhibitory concentration, B. pseudomallei Bp82
[4] = tested on: P. aeruginosa ATCC 27853; assay: microbe, parasite or virus in culture; type: cell-based; conditions: Pseudomonas aeruginosa, ATCC27853, read-out: Minimum inhibitory concentration, P. aeruginosa ATCC 27853
[5] = tested on: P. aeruginosa ATCC 35151; assay: microbe, parasite or virus in culture; type: cell-based; conditions: Pseudomonas aeruginosa, ATCC35151, read-out: Minimum inhibitory concentration, P. aeruginosa ATCC 35151
[6] = tested on: P. aeruginosa (ΔmexAB-oprM); assay: Broth microdilution MIC in iron-depleted CAMHB (IDM); type: cell-based; conditions: Pseudomonas aeruginosa, read-out: Minimum inhibitory concentration, P. aeruginosa ΔmexAB-oprM
[7] = tested on: P. aeruginosa CDC-0054; assay: microbe, parasite or virus in culture; type: cell-based; conditions: Pseudomonas aeruginosa, CDC0054, read-out: Minimum inhibitory concentration, P. aeruginosa CDC-0054
[8] = tested on: P. aeruginosa CDC-0090; assay: microbe, parasite or virus in culture; type: cell-based; conditions: Pseudomonas aeruginosa, CDC0090, read-out: Minimum inhibitory concentration, P. aeruginosa CDC-0090
[9] = tested on: P. aeruginosa CDC-0095; assay: microbe, parasite or virus in culture; type: cell-based; conditions: Pseudomonas aeruginosa, CDC0095, read-out: Minimum inhibitory concentration, P. aeruginosa CDC-0095
[10] = tested on: B. thailandensis ATCC 700388; assay: microbe, parasite or virus in culture; type: cell-based; conditions: Burkholderia thailandensis, ATCC700388, read-out: Minimum inhibitory concentration (MIC), B. thailandensis ATCC 700388
[11] = tested on: B. humptydooensis ATCC BAA-2767; assay: microbe, parasite or virus in culture; type: cell-based; conditions: Burkholderia humptydooensis, ATCCBAA2767, read-out: Minimum inhibitory concentration (MIC), B. humptydooensis ATCC BAA-2767
[12] = tested on: P. aeruginosa CDC-0110; assay: microbe, parasite or virus in culture; type: cell-based; conditions: Pseudomonas aeruginosa, CDC0110, read-out: Minimum inhibitory concentration, P. aeruginosa CDC-0110

Row | SMILES | EC50 [1] [µM] | EC50 [2] [µM] | MIC [3] [mg/L] | MIC [4] [mg/L] | MIC [5] [mg/L] | MIC [6] [mg/L] | MIC [7] [mg/L] | MIC [8] [mg/L] | MIC [9] [mg/L] | MIC [10] [mg/L] | MIC [11] [mg/L] | MIC [12] [mg/L] | MIC ([6]; iron-depleted CAMHB (IDM), […]) [mg/L]
1 | O=C(O)c1c(F)ccc2c1OB(O)[C@@H](NC(=O)[C@H](NC(=O)N1CCN(C3CCN(Cc4cncc(O)c4)CC3)C1=O)c1cc(F)c(O)c(O)c1Cl)C2 (single isomer, unassigned) [Example 614] | 10 to 50 | 10 to 50 | < 1 | < 1 | < 1 | < 1 | 2 to 4 (≈ 2.68 to 5.37 µM) | < 1 | 2 to 4 (≈ 2.68 to 5.37 µM) | < 1 | < 1 | < 1 | –
2 | NCc1cc(O)cc(CN2CCC(N3CCN(C(=O)N[C@@H](C(=O)N[C@H]4Cc5ccc(F)c(C(=O)O)c5OB4O)c4cc(F)c(O)c(O)c4Cl)C3=O)CC2)c1 (single isomer, unassigned) [Example 617] | 10 to 50 | 50 to 250 | < 1 | < 1 | < 1 | < 1 | < 1 | < 1 | < 1 | < 1 | < 1 | < 1 | –
3 | Nc1ccc(CN2CCC(N3CCN(C(=O)N[C@@H](C(=O)N[C@H]4Cc5ccc(F)c(C(=O)O)c5OB4O)c4cc(F)c(O)c(O)c4Cl)C3=O)CC2)cn1 (single isomer, unassigned) [Example 618] | 10 to 50 | 10 to 50 | < 1 | < 1 | < 1 | < 1 | < 1 | < 1 | 2 to 4 (≈ 2.69 to 5.38 µM) | < 1 | < 1 | < 1 | –
4 | O=C(O)c1c(F)ccc2c1OB(O)[C@@H](NC(=O)[C@H](NC(=O)N1CCN(C3CCN(Cc4ccnnc4)CC3)C1=O)c1cc(F)c(O)c(O)c1Cl)C2 [Example 601, (R)-3-((R)-2-(2-chloro-5-fluoro-3,4-dihydroxyphenyl)-2-(2-oxo-3-(1-(pyridazin-4-ylmethyl)piperidin-4-yl)imidazolidine-1-carboxamido)acetamido)-7-fluoro-2-hydroxy-3,4-dihydro-2H-benzo[e][1,2]oxaborinine-8-carboxylic acid] | < 10 | 10 to 50 | – | < 1 | < 1 | < 1 | < 1 | 2 to 4 (≈ 2.74 to 5.48 µM) | 2 to 4 (≈ 2.74 to 5.48 µM) | < 1 | < 1 | < 1 | –
5 | O=C(O)c1c(F)ccc2c1OB(O)[C@@H](NC(=O)[C@H](NC(=O)N1CCN(C3CCN(Cc4ccncn4)CC3)C1=O)c1cc(F)c(O)c(O)c1Cl)C2 [Example 602, (R)-3-((R)-2-(2-chloro-5-fluoro-3,4-dihydroxyphenyl)-2-(2-oxo-3-(1-(pyrimidin-4-ylmethyl)piperidin-4-yl)imidazolidine-1-carboxamido)acetamido)-7-fluoro-2-hydroxy-3,4-dihydro-2H-benzo[e][1,2]oxaborinine-8-carboxylic acid] | < 10 | 10 to 50 | < 1 | < 1 | < 1 | < 1 | < 1 | < 1 | 2 to 4 (≈ 2.74 to 5.48 µM) | < 1 | < 1 | < 1 | –
6 | NCc1cccc(C(=O)N2CCC(N3CCN(C(=O)N[C@@H](C(=O)N[C@H]4Cc5ccc(F)c(C(=O)O)c5OB4O)c4cc(F)c(O)c(O)c4Cl)C3=O)CC2)c1 [Example 603, (R)-3-((R)-2-(3-(1-(3-(aminomethyl)benzoyl)piperidin-4-yl)-2-oxoimidazolidine-1-carboxamido)-2-(2-chloro-5-fluoro-3,4-dihydroxyphenyl)acetamido)-7-fluoro-2-hydroxy-3,4-dihydro-2H-benzo[e][1,2]oxaborinine-8-carboxylic acid] | 10 to 50 | 10 to 50 | – | < 1 | < 1 | – | < 1 | 2 to 4 (≈ 2.59 to 5.19 µM) | 2 to 4 (≈ 2.59 to 5.19 µM) | < 1 | < 1 | < 1 | < 1
7 | Nc1cc(CN2CCC(N3CCN(C(=O)N[C@@H](C(=O)N[C@H]4Cc5ccc(F)c(C(=O)O)c5OB4O)c4cc(F)c(O)c(O)c4Cl)C3=O)CC2)ccn1 [Example 619, (R)-3-((R)-2-(3-(1-((2-aminopyridin-4-yl)methyl)piperidin-4-yl)-2-oxoimidazolidine-1-carboxamido)-2-(2-chloro-5-fluoro-3,4-dihydroxyphenyl)acetamido)-7-fluoro-2-hydroxy-3,4-dihydro-2H-benzo[e][1,2]oxaborinine-8-carboxylic acid] | < 10 | 10 to 50 | – | < 1 | < 1 | < 1 | < 1 | < 1 | < 1 | < 1 | < 1 | < 1 | –
